Bounds are passed on as bounds.

T1 sequence (O60760 whole entry): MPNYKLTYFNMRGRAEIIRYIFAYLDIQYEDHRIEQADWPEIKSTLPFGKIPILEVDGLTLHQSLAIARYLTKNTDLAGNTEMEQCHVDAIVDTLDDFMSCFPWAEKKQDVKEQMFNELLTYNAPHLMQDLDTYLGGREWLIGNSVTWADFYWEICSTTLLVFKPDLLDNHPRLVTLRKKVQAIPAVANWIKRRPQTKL

The assay has as its target T1, human H-PGDS (Homo sapiens, UniProt O60760).
T1 construct: Full length human H-PGDS cDNA (Invitrogen Ultimate ORF IOH13026) was amplified by PCR; 6-His (N); TEV protease cleavage site (N); made in house; host or cells: E. coli BL21 (DE3*) for H-PGDS; Sf9 insect cells (baculovirus) for COX-2
Briefly: H-PGDS RapidFire high throughput mass spectrometry assay. The class given is biochemical. Particulars: inhibition of conversion of PGH2 to PGD2 by H-PGDS; mean pIC50; read-out: Potency Range (mean pIC50) (converted). As for the experimental part:
H-PGDS RapidFire™ High Throughput Mass Spectrometry Assay
The H-PGDS RapidFire™ mass spectrometric assay monitors conversion of prostaglandin H2 (PGH2) to prostaglandin D2 (PGD2) by haematopoietic prostaglandin D synthase (H-PGDS). In the assay format described here, the substrate (PGH2) is formed in situ by the action of cyclooxygenase-2 on arachidonic acid. This first step is set up to be fast, and generates a burst of PGH2 at ˜10 μM. The PGH2 is then further converted to PGD2 by the H-PGDS enzyme. […] Plates are then read on the RapidFire™ high throughput solid phase extraction system (Agilent) which incorporates a solid phase extraction step coupled to a triple quadrupole mass spectrometer (AB SCIEX). Relative levels of PGD2 and PGF2α, which acts as a surrogate for substrate, are measured and a percent conversion calculated. Inhibitors are characterised as compounds which lower the conversion of PGH2 to PGD2.
Full length human H-PGDS cDNA (Invitrogen Ultimate ORF IOH13026) was amplified by PCR with the addition of a 5′ 6-His tag and TEV protease cleavage site. The PCR product was digested with NdeI and XhoI and ligated into pET22b+ (Merck Novagen®). Expression was carried out in E. coli strain BL21 (DE3*) using auto-induction Overnight Express™ Instant TB medium (Merck Novagen®) supplemented with 1% glycerol. The culture was first grown at 37° C. and the temperature was reduced to 25° C. when OD600 reached 2.0. Cells were harvested by centrifugation after a further 18 hours. 10 g of E. coli cell pellet was suspended to a total volume of 80 mL in lysis buffer (20 mM Tris-Cl pH 7.5, 300 mM NaCl, 20 mM imidazole, 5 mM p-mercaptoethanol, 10% glycerol). 1 mg/mL protease inhibitors (Protease Inhibitor Cocktail Set III, Merck Calbiochem®) and 1 mg/mL lysozyme were added to the cell suspension. The suspension was then sonicated for 5 min (UltraSonic Processor VCX 750, Cole-Parmer Instrument Co.) with a micro probe (50% amplitude, 10 sec on/off) and then centrifuged at 100,000 g for 90 minutes (at 4° C.). The supernatant was loaded onto a Ni-NTA HiTrap column (5 mL, GE Healthcare, pre-equilibrated in lysis buffer). The column was washed with 10 column volumes of lysis buffer and eluted with lysis buffer containing 500 mM imidazole. The pooled protein peak fractions were concentrated using a 10 kDa centrifugal filter at 3500 g and 4° C. (Amicon Ultra-15 centrifugal filter unit with Ultracel-10 membrane from Millipore). Further purification of the concentrated protein was carried out using gel filtration chromatography on a HiLoad 26/600 Superdex 75 preparative grade column (GE Healthcare Life Sciences) using 50 mM Tris pH 7.5, 50 mM NaCl, 1 mM dithiothreitol, 1 mM MgCl2. Fractions containing the protein were pooled, concentrated as described above, and stored at −80° C.
The full length human COX-2 gene (accession number L15326) was amplified by PCR to generate an EcoRI—HindIII fragment containing an in-frame FLAG tag. This was subcloned into pFastBac 1 (Invitrogen). The COX-2 FLAG plasmid was recombined into the baculovirus genome according to the BAC-to-BAC protocol described by Invitrogen. Transfection into Spodoptera frugiperda (Sf9) insect cells was performed using Cellfectin (Invitrogen), according to the manufacturer's protocol. Super Sf9 cells were cultured in EX420 media (SAFC Biosciences) to a density of approximately 1.5×10^6 cells/mL within a wave bioreactor. Recombinant virus was added at a Multiplicity of Infection (MOI) of 5 and the culture was allowed to continue for 3 days. Cells were harvested using a continuous feed centrifuge run at 2500 g at a rate of approximately 2 L/min with cooling. The resultant cell slurry was re-centrifuged in pots (2500 g, 20 min, 4° C.) and the cell paste was stored at −80° C. […]
As to `N#Cc1cccc(-c2ncc(C(=O)N[C@H]3CCNC3=O)s2)c1` [Example 43, (S)-2-(3-Cyanophenyl)-N-(2-oxopyrrolidin-3-yl)thiazole-5-carboxamide], the IC50 is 102 to 1000 nM.
The result for `Cc1ccc(-c2ncc(C(=O)N[C@H]3CCNC3=O)s2)cc1` [Example 44, (S)-N-(2-Oxopyrrolidin-3-yl)-2-(p-tolyl)thiazole-5-carboxamide] reads 1020 to 10000 nM; that for `O=C(N[C@H]1CCNC1=O)c1cnc(-c2cccc(F)c2)s1` [Example 45, (S)-2-(3-Fluorophenyl)-N-(2-oxopyrrolidin-3-yl)thiazole-5-carboxamide], 10.2 to 100 nM; that for `Cc1cccc(-c2ncc(C(=O)N[C@H]3CCNC3=O)s2)n1` [Example 46, (S)-2-(6-Methylpyridin-2-yl)-N-(2-oxopyrrolidin-3-yl)thiazole-5-carboxamide], 102 to 1000 nM.
With `Cc1ccnc(-c2ncc(C(=O)N[C@H]3CCNC3=O)s2)c1` [Example 47, (S)-2-(4-Methylpyridin-2-yl)-N-(2-oxopyrrolidin-3-yl)thiazole-5-carboxamide], the IC50 is 10.2 to 100 nM.
The result for `Cc1cc(-c2ncc(C(=O)N[C@H]3CCNC3=O)s2)cc(C(F)F)c1` [Example 48, (S)-2-(3-(Difluoromethyl)-5-methylphenyl)-N-(2-oxopyrrolidin-3-yl)thiazole-5-carboxamide] reads 10.2 to 100 nM; that for `O=C(N[C@H]1C(=O)N[C@@H]2CCC[C@@H]21)c1cnc(-c2cc(F)cc(Cl)c2)s1` [Example 50, 2-(3-Chloro-5-fluorophenyl)-N-((3R,3aS,6aR)-2-oxooctahydrocyclopenta[b]pyrrol-3-yl)thiazole-5-carboxamide], 102 to 1000 nM; that for `O=C(N[C@@H]1C(=O)N[C@H]2CCC[C@H]21)c1cnc(-c2cc(F)cc(Cl)c2)s1` [Example 51, 2-(3-Chloro-5-fluorophenyl)-N-((3S,3aR,6aS)-2-oxooctahydrocyclopenta[b]pyrrol-3-yl)thiazole-5-carboxamide], 1.02 to 10 nM.
The result for `O=C(N[C@@H]1C(=O)N[C@H]2COC[C@H]21)c1cnc(-c2cc(F)cc(Cl)c2)s1` [Example 53, 2-(3-Chloro-5-fluorophenyl)-N-((3S,3aR,6aR)-2-oxohexahydro-1H-furo[3,4-b]pyrrol-3-yl)thiazole-5-carboxamide] reads 10.2 to 100 nM; that for `O=C(N[C@H]1C(=O)N[C@@H]2COC[C@@H]21)c1cnc(-c2cc(F)cc(Cl)c2)s1` [Example 54, 2-(3-Chloro-5-fluorophenyl)-N-((3R,3aS,6aS)-2-oxohexahydro-1H-furo[3,4-b]pyrrol-3-yl)thiazole-5-carboxamide], 10.2 to 100 nM; that for `O=C(N[C@@H]1CC2(COC2)NC1=O)c1cnc(-c2cc(F)cc(Cl)c2)s1` [Example 56, (R)-2-(3-Chloro-5-fluorophenyl)-N-(6-oxo-2-oxa-5-azaspiro[3.4]octan-7-yl)thiazole-5-carboxamide], 102 to 1000 nM.
The value for `O=C(N[C@H]1CC2(COC2)NC1=O)c1cnc(-c2cc(F)cc(Cl)c2)s1` [Example 57, (S)-2-(3-Chloro-5-fluorophenyl)-N-(6-oxo-2-oxa-5-azaspiro[3.4]octan-7-yl)thiazole-5-carboxamide] was 1.02 to 10 nM; that for `O=C(N[C@H]1C(=O)N[C@H]2CCC[C@H]21)c1cnc(-c2cc(F)cc(Cl)c2)s1` [Example 59, 2-(3-Chloro-5-fluorophenyl)-N-((3R,3aR,6aS)-2-oxooctahydrocyclopenta[b]pyrrol-3-yl)thiazole-5-carboxamide] was 102 to 1000 nM; that for `O=C(N[C@@H]1C(=O)N[C@@H]2CCC[C@H]12)c1cnc(-c2cc(F)cc(Cl)c2)s1` [Example 60, 2-(3-Chloro-5-fluorophenyl)-N-((3S,3aS,6aR)-2-oxooctahydrocyclopenta[b]pyrrol-3-yl)thiazole-5-carboxamide] was 10.2 to 100 nM.
Turning to `C[C@@H]1C[C@@H](NC(=O)c2cnc(-c3cc(F)cc(Cl)c3)s2)C(=O)N1` [Example 61, 2-(3-Chloro-5-fluorophenyl)-N-((3R,5R)-5-methyl-2-oxopyrrolidin-3-yl)thiazole-5-carboxamide], the IC50 is 102 to 1000 nM.
The result for `C[C@@H]1C[C@H](NC(=O)c2cnc(-c3cc(F)cc(Cl)c3)s2)C(=O)N1` [Example 62, 2-(3-Chloro-5-fluorophenyl)-N-((3S,5R)-5-methyl-2-oxopyrrolidin-3-yl)thiazole-5-carboxamide] reads 10.2 to 100 nM; that for `CN1CC[C@H](NC(=O)c2cnc(-c3cc(F)cc(Cl)c3)s2)C1=O` [Example 64, (S)-2-(3-Chloro-5-fluorophenyl)-N-(1-methyl-2-oxopyrrolidin-3-yl)thiazole-5-carboxamide], 10.2 to 100 nM.
The result for `CN(C(=O)c1cnc(-c2cc(F)cc(Cl)c2)s1)[C@H]1CCNC1=O` [Example 66, (S)-2-(3-Chloro-5-fluorophenyl)-N-methyl-N-(2-oxopyrrolidin-3-yl)thiazole-5-carboxamide] reads 1020 to 10000 nM; that for `CN(C(=O)c1cnc(-c2cc(F)cc(Cl)c2)s1)[C@@H]1CCNC1=O` [Example 67, (R)-2-(3-Chloro-5-fluorophenyl)-N-methyl-N-(2-oxopyrrolidin-3-yl)thiazole-5-carboxamide], above 10000 nM; that for `COc1cccc(-c2ncc(C(=O)N[C@H]3CCNC3=O)s2)c1` [Example 68, (S)-2-(3-Methoxyphenyl)-N-(2-oxopyrrolidin-3-yl)thiazole-5-carboxamide], 10.2 to 100 nM.
For `O=C(N[C@H]1CCNC1=O)c1cnc(-c2cccc(O)c2)s1` [Example 69, (S)-2-(3-Hydroxyphenyl)-N-(2-oxopyrrolidin-3-yl)thiazole-5-carboxamide], the IC50 was 10.2 to 100 nM.
The result for `C[C@]1(NC(=O)c2cnc(-c3cc(F)cc(Cl)c3)s2)CCNC1=O` [Example 72, (S)-2-(3-Chloro-5-fluorophenyl)-N-(3-methyl-2-oxopyrrolidin-3-yl)thiazole-5-carboxamide] reads 10.2 to 100 nM; that for `C[C@@]1(NC(=O)c2cnc(-c3cc(F)cc(Cl)c3)s2)CCNC1=O` [Example 73, (R)-2-(3-Chloro-5-fluorophenyl)-N-(3-methyl-2-oxopyrrolidin-3-yl)thiazole-5-carboxamide], 102 to 1000 nM.
The value for `C[C@H]1CNC(=O)[C@H]1NC(=O)c1cnc(-c2cc(F)cc(Cl)c2)s1` [Example 75, 2-(3-Chloro-5-fluorophenyl)-N-((3S,4S)-4-methyl-2-oxopyrrolidin-3-yl)thiazole-5-carboxamide] was 10.2 to 100 nM; that for `C[C@@H]1CNC(=O)[C@@H]1NC(=O)c1cnc(-c2cc(F)cc(Cl)c2)s1` [Example 76, 2-(3-Chloro-5-fluorophenyl)-N-((3R,4R)-4-methyl-2-oxopyrrolidin-3-yl)thiazole-5-carboxamide] was 1020 to 10000 nM; that for `O=C(N[C@H]1CCNC1=S)c1cnc(-c2cc(F)cc(Cl)c2)s1` [Example 77, (S)-2-(3-Chloro-5-fluorophenyl)-N-(2-thioxopyrrolidin-3-yl)thiazole-5-carboxamide] was 1.02 to 10 nM.
The result for `O=C(N[C@H]1CCNC1=[Se])c1cnc(-c2cc(F)cc(Cl)c2)s1` [Example 78, (S)-2-(3-chloro-5-fluorophenyl)-N-(2-selenoxopyrrolidin-3-yl)thiazole-5-carboxamide] reads 1.02 to 10 nM.
